According to paper PMC6858345, “Structural insights into heme binding to IL-36α proinflammatory cytokine” (Scientific Reports, 2019):
Read-outs that look alike come from different tables or passages of the source. Blank lines part the entries; values can stand above or below the molecule they belong to.

Assays:
[1] = system: synovial fibroblast-like synoviocytes (FLS) from RA patients; assay: IL-6/IL-8 mRNA expression (qRT-PCR) in stimulated FLS; assay type: cell-based, human; details: 24 h; for IL-6 and IL-8 expression (mRNA) in FLS: IL-36α 5.8 nM, heme 0.15 and 1.5 µM (ratios 26:1 and 260:1)
Description: Human fibroblast-like synoviocytes (FLS) were isolated from knee joints of rheumatoid arthritis patients obtained at the University Hospital Erlangen-Nuremberg[69]. All patients gave written informed consent, and their use for research was approved by the ethics committee of the University hospital Erlangen (ethic licenses 4013 and 4065). We confirm that all methods were performed in accordance with the relevant guidelines and regulations. Human RA FLS kept at 37 °C and 5% CO2 in a humidified incubator upon isolation. They were cultured in RPMI and DMEM at a ratio of 1:5, supplemented with 50 U/mL penicillin, 50 μg/mL streptomycin, 0.2% amphotericin and 2% fetal bovine serum. Cells between passages 3 to 8 were used. For stimulation experiments, human FLS from RA patients were seeded at a concentration of 100,000 cells/mL in 500 μL culture medium in a 48-well plate one day prior to the experiment. […] Cells were then incubated for either 5 min (western blot analysis of phosphorylation) or 24 h (qPCR and ELISA). Sample separation was performed by a reducing […] (10% SDS polyacrylamide gel) and blotted to a nitrocellulose membrane by semi-dry transfer. […] Cell viability was analyzed using the AlamarBlue assay according to the manufacturer's instruction (#741802, Invitrogen, Carlsbad, CA, USA), and absorbance was measured at 570 nm and 600 nm. For performing quantitative real-time PCR (qRT-PCR), RNA was isolated from FLS with […], Germany), followed by first-strand cDNA synthesis using the MultiScribeTM MuLV reverse transcriptase (Applied Biosystems, Foster City, CA, USA), both according to manufacturer's instruction. Relative gene expression was assessed by qRT-PCR using the Applied Biosystems 7500 fast-real-time-PCR System (Applied Biosystems) with SYBR® Select Master Mix (ThermoFisher Scientific) as detection method, according to the manufacturer's manual. Samples and the housekeeping gene GAPDH as endogenous control were analyzed in duplicates. […]

[2] = system: synovial fibroblast-like synoviocytes (FLS) from RA patients; assay: p38 activation in FLS (western blot of P-p38); assay type: cell-based, human; details: 5 min stimulation
Description: Human fibroblast-like synoviocytes (FLS) were isolated from knee joints of rheumatoid arthritis patients obtained at the University Hospital Erlangen-Nuremberg[69]. All patients gave written informed consent, and their use for research was approved by the ethics committee of the University hospital Erlangen (ethic licenses 4013 and 4065). We confirm that all methods were performed in accordance with the relevant guidelines and regulations. Human RA FLS kept at 37 °C and 5% CO2 in a humidified incubator upon isolation. They were cultured in RPMI and DMEM at a ratio of 1:5, supplemented with 50 U/mL penicillin, 50 μg/mL streptomycin, 0.2% amphotericin and 2% fetal bovine serum. Cells between passages 3 to 8 were used.
For stimulation experiments, human FLS from RA patients were seeded at a concentration of 100,000 cells/mL in 500 µL culture medium in a 48-well plate one day prior to the experiment. Before stimulation of FLS, heme was pre-incubated with trIL-36α or trIL-36α protein mutants with substituted amino acids in the proposed heme-binding site in medium for 1 h at room temperature in the dark. […] Cell viability was analyzed using the AlamarBlue assay according to the manufacturer’s instruction (#741802, Invitrogen, Carlsbad, CA, USA), and absorbance was measured at 570 nm and 600 nm.

[3] = Peroxidase-like activity of heme complexes; assay type: biochemical; details: protein:heme 1:1 and 1:2
Text: A peroxidase-like activity of heme-peptide/protein complexes has been discussed to be critical due to cytotoxic ROS formation[4],[43]–[45]. We thus tested the peroxidase-like activity of IL-36α-heme-complexes in two different ratios (1:1 and 1:2, protein:heme) as well as of both heme-binding motifs (CP, YH) on the peptide level (Supplementary Fig. S5E).

[4] = UV/Vis differential spectroscopy of heme-incubated proteins and peptides; assay type: binding; details: peptide 20 µM, 30 min, 100 mM Hepes pH 7.0; read-out: KD for UV/Vis, IL-36α-derived peptides
Description: (§1) A Multiskan GO microplate spectrophotometer (ThermoFisher Scientific, Dreieich, Germany) was used for UV/Vis measurements. Heme and peptide solutions were prepared in 100 mM Hepes buffer (pH 7.0). IL-36 cytokines (~5 µM), dissolved in 20 mM sodium phosphate buffer (pH 6.9), were incubated with heme (0.2 to 40 µM) in the dark at room temperature for 60 minutes before UV/Vis spectra were measured at 300 to 600 nm. Protein concentrations were corrected using the calculated molar absorption coefficient at 280 nm. Peptides 1–7 (20 µM) were incubated with heme for 30 minutes in the dark at room temperature.

[5] = Surface plasmon resonance (SPR) of heme binding to immobilized proteins, single-cycle kinetics
Description: SPR measurements were performed on a Biacore T200 instrument (GE Healthcare Europe GmbH, Freiburg, Germany) at 25 °C. The running buffer was 10 mM HEPES (pH 7.4), 150 mM NaCl, 0.05% Tween 20. The proteins BSA (VWR Life Science AMRESCO, Germany), lysozyme (AppliChem GmbH, Darmstadt, Germany), IL-36α (protein expression), trIL-36α (R&D Systems, Minneapolis, MN, USA), trIL-36β (isoform 2, R&D Systems, Minneapolis, MN, USA) and trIL-36γ (R&D Systems, Minneapolis, MN, USA) were covalently immobilized by amine coupling on a CM5 sensor chip (GE Healthcare). Briefly, lysozyme was diluted to a final concentration of 2.5 µg/mL in acetate buffer (pH 7.0), and BSA was diluted to 2.5 µg/mL in acetate buffer (pH 5.0). trIL-36α, trIL-36β, and trIL-36γ were diluted to 0.85 µg/mL in acetate buffer (pH 4.0). Subsequently, the proteins were separately injected at 10 µL/min on an EDC/NHS activated flow cell until immobilization levels of 1600 RU (lysozyme), 1050 RU (trIL-36α), 2900 RU (BSA), 937 RU (trIL-36β), and 320 RU (trIL-36γ) were achieved. An activated/deactivated flow cell was used for reference subtraction. […]

[6] = Fluorescence quenching of heme-incubated proteins; assay type: binding; details: λex 306 nm, λem 352 nm; protein 1 µM, heme 0.1-16 µM
Description: All measurements were performed on a fluorescence spectrophotometer FP-8300 (Jasco, Tokyo, Japan). BSA (1 µM) and lysozyme (1 µM) were dissolved in PBS buffer (pH 7.4) and IL-36α variants (1 µM) in 20 mM sodium phosphate buffer (pH 6.9), were each dissolved in and incubated for 60 minutes with varying heme concentrations (0.1–16 µM) in the dark. Parameters were set to excitation at 306 nm, emission at 352 nm, bandwidth 10 nm (extinction) and 20 nm (emission)[30].

[7] = parameters: method as in PMID 23730736; details: UV shift to ~366 nm; read-out: Heme binding affinity of the 9mer CP-motif (UV/Vis); cited from earlier work
IL-36α = target: T1, IL-36α (Homo sapiens, UniProt Q9UHA7); assay: UV/Vis differential spectroscopy, protoporphyrin IX applied to IL-36α; assay type: binding
T1 construct: three additional amino acids (Gly-Ser-His) attached at the N-terminus of full-length IL-36α (161 amino acids); His6 tag with thrombin cleavage site (N, cleaved yes); made in house; host or cells: Escherichia coli BL21(DE3), pET-28a
T1 sequence (Q9UHA7 6-158): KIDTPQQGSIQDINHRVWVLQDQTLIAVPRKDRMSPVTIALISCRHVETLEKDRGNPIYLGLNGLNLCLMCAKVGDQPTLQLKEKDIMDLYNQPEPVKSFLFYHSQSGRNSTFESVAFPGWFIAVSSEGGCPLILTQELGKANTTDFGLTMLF
Description: as §1

Molecule: C=CC1=C(C)C2=Cc3c(C=C)c(C)c4[n]3[Fe+][n]3c(c(C)c(CCC(=O)O)c3=CC3=NC(=C4)C(C)=C3CCC(=O)O)=CC1=N2 [heme]
IL-6 and IL-8 expression (mRNA) in FLS [1]: did not have an effect
Activation of p38 in IL-36α-mediated signaling [2]: decreased activation of p38

Peroxidase-like activity relative to heme (100%) [3]: No significant increase
Kd [4]: 4.48 ± 2.2 µM
Molecule: FLFY108H109SQSG (FLFYHSQSG; UniProt Q9UHA7 105-113, looked up, fragment) [Peptide 1, IL-36α-derived 9mer wild-type YH motif peptide]

Heme binding by SPR (in words) [5]: non-binder
Heme binding by fluorescence quenching (in words) [6]: non-binder
Molecule: Lysozyme: negative control (non-binder) for heme binding [reference compound]

Molecule: SEGGC136P137LIL (SEGGCPLIL; UniProt Q9UHA7 132-140, looked up, fragment) [9mer CP-motif]
Kd [7]: 3.75 ± 0.77 µM

Molecule: C=CC1=C(C)c2cc3[nH]c(cc4nc(cc5[nH]c(cc1n2)c(C)c5CCC(=O)O)C(CCC(=O)O)=C4C)c(C)c3C=C [protoporphyrin IX (PPIX), protoporphyrin IX]
Effect on UV/Vis differential spectrum of IL-36α (IL-36α): No effect

Peroxidase-like activity relative to heme (100%) [3]: No significant increase
Heme binding by fluorescence quenching (in words) [6]: confirmed
B1: IL-36α: full-length interleukin-36α, recombinantly expressed in E. coli (protein, UniProt Q9UHA7 1-158, looked up)
chain: MEKALKIDTPQQGSIQDINHRVWVLQDQTLIAVPRKDRMSPVTIALISCRHVETLEKDRGNPIYLGLNGLNLCLMCAKVGDQPTLQLKEKDIMDLYNQPEPVKSFLFYHSQSGRNSTFESVAFPGWFIAVSSEGGCPLILTQELGKANTTDFGLTMLF
modifications: full-length
notes: full-length interleukin-36α, recombinantly expressed in E. coli
IL-6 and IL-8 expression (mRNA) in FLS [1]: induced IL-6 and IL-8 expression

B2: C136SP137A: IL-36α protein mutant C136S P137A (protein, UniProt Q9UHA7 6-158, looked up, variant C136S P137A)
Interleukin-36 alpha: KIDTPQQGSIQDINHRVWVLQDQTLIAVPRKDRMSPVTIALISCRHVETLEKDRGNPIYLGLNGLNLCLMCAKVGDQPTLQLKEKDIMDLYNQPEPVKSFLFYHSQSGRNSTFESVAFPGWFIAVSSEGGSALILTQELGKANTTDFGLTMLF
IL-6 expression / biological activity of IL-36α mutants in FLS ([1]; 5.8 nM protein, compared to IL-36α): showed biological activity, even if reduced with respect to wild-type IL-36α
